Values quoted from earlier work as cited in patent US20070238696A1, “Dosage unit for cardioprotection” (priority 2000, published 2007).

Conditions: men, median intake 419 IU/day compared to median intake 6 IU/day; followed for four years

In the case of vitamin E, the relative risk reduction is listed as 44%.
